From PMC5908160, “Inhibition of sperm motility in male macaques with EP055, a potential non-hormonal male contraceptive” (PLoS ONE, 2018) come the findings set out here.

A word on the IC50: it is the point on the concentration scale where inhibition reaches its midpoint.

For the test, the target named is EPPIN (Homo sapiens, UniProt O95925). Kind of test: AlphaScreen assay of a-EAb binding to EPPIN. The conditions noted are these: n = 4, read-out: IC50, inhibition of a-EAb binding to EPPIN. As to the method: The AlphaScreen® assay was carried as previously described. Briefly, recombinant histidine-tagged recombinant EPPIN was pre-incubated with Ni-NTA chelate donor beads (catalog number AS101, Perkin Elmer, Waltham MA) and anti-Eppin 007 antibody was pre-incubated with Protein A acceptor beads (catalog number 6760136, Perkin Elmer, Waltham MA) for 30 minutes. Equal volumes of donor and acceptor bead mixtures were pipetted into white opaque 384-well microplates (OptiPlate-384; PerkinElmer, Waltham, MA) in a final volume of 30 μL. Plates were covered with top seal and transferred to a Synergy 2 Multiplatform automated plate reader (Biotek, Winooski, VT). After shaking for 2 min, plates were read with an excitation 680/30 filter, an emission 570/100 filter and data acquired using Gen5 software (Biotek). Each set of samples was pipetted in 4 replicates. […] A specific signal for each time point was calculated by subtracting the background signal (obtained in the absence of EPPIN) from its respective total signal. […] Non-specific interactions of compound with assay components were measured at the same time with the IgG detection kit ([…] biotinylated rabbit IgG) to generate the bead interaction: 10 μg/ml donor and acceptor beads. […]
Sequence of EPPIN (O95925 22-133): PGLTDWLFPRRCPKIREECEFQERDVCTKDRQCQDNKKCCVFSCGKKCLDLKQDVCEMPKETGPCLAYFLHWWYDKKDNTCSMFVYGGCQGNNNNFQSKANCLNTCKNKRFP
In general terms: Alpha assays give light when donor and acceptor beads are brought close together.

Consider `COC(=O)NNc1nc(Nc2ccc(NC(C)=O)c(O)c2)nc(SCC(=O)O)n1` [EP055], for which the IC50 is 1.12 mM.
